Measurements reported in the supplement of paper PMC10307832.

Assays:
Assay in all cases: relative viability (nuclei count vs DMSO), 5 days (fraction); higher = more cells survive
Ruboxistaurin + OSI-027 = compound: CN(C)C[C@@H]1CCn2cc(c3ccccc32)C2=C(C(=O)NC2=O)c2cn(c3ccccc23)CCO1 [Ruboxistaurin] + COc1cccc2cc(-c3nc([C@H]4CC[C@H](C(=O)O)CC4)n4ncnc(N)c34)[nH]c12 [OSI-027] (partner 0.5 µM)
Summary of the method: (§1)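 Lung cancer cell lines in 1536-well plates got either a single drug or a fixed anchor-drug dose together with five library-drug doses (not always all listed) in √10 steps, by pin tool, on the day after seeding. Nuclei were counted after 5 days, and relative viability is the treated-to-vehicle ratio of nuclei counts. Values are medians of duplicate plates.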

[1] = compound: CN(C)C[C@@H]1CCn2cc(c3ccccc32)C2=C(C(=O)NC2=O)c2cn(c3ccccc23)CCO1 [Ruboxistaurin] + CC(=O)Nc1cccc(-n2c(=O)n(C3CC3)c(=O)c3c(Nc4ccc(I)cc4F)n(C)c(=O)c(C)c32)c1 [Trametinib] (partner 0.02 µM)
Summary of the method: as §1

[2] = compound: CN(C)C[C@@H]1CCn2cc(c3ccccc32)C2=C(C(=O)NC2=O)c2cn(c3ccccc23)CCO1 [Ruboxistaurin] + CCNC(=O)c1noc(-c2cc(C(C)C)c(O)cc2O)c1-c1ccc(CN2CCOCC2)cc1 [Luminespib] (partner 0.01 µM)
Summary of the method: as §1

[3] = compound: CN(C)C[C@@H]1CCn2cc(c3ccccc32)C2=C(C(=O)NC2=O)c2cn(c3ccccc23)CCO1 [Ruboxistaurin] + O=C(CCCCCCC(=O)Nc1ccccc1)NO [Vorinostat] (partner 1 µM)
Summary of the method: as §1

Ruboxistaurin + AZD7762 = compound: CN(C)C[C@@H]1CCn2cc(c3ccccc32)C2=C(C(=O)NC2=O)c2cn(c3ccccc23)CCO1 [Ruboxistaurin] + NC(=O)Nc1cc(-c2cccc(F)c2)sc1C(=O)N[C@H]1CCCNC1 [AZD7762] (partner 0.2 µM)
Summary of the method: as §1

Cell Line	relative viability (Ruboxistaurin + OSI-027; first compound 0.08 µM)	relative viability (Ruboxistaurin + OSI-027; first compound 0.8 µM)	relative viability (Ruboxistaurin + OSI-027; first compound 2.53 µM)	relative viability (Ruboxistaurin + OSI-027; first compound 8 µM)	relative viability ([1]; first compound 0.08 µM)	relative viability ([1]; first compound 0.8 µM)	relative viability ([1]; first compound 2.53 µM)	relative viability ([1]; first compound 8 µM)	relative viability ([2]; first compound 0.08 µM)	relative viability ([2]; first compound 0.8 µM)	relative viability ([2]; first compound 2.53 µM)	relative viability ([2]; first compound 8 µM)	relative viability ([3]; first compound 0.08 µM)	relative viability ([3]; first compound 0.8 µM)	relative viability ([3]; first compound 2.53 µM)	relative viability ([3]; first compound 8 µM)	relative viability (Ruboxistaurin + AZD7762; first compound 0.08 µM)	relative viability (Ruboxistaurin + AZD7762; first compound 0.8 µM)	relative viability (Ruboxistaurin + AZD7762; first compound 2.53 µM)	relative viability (Ruboxistaurin + AZD7762; first compound 8 µM)
201T	0.694	0.723	0.675	0.59	0.739	0.705	0.764	0.747	1.09	1.01	1.09	1	1	0.961	1.05	1.03	0.539	0.549	0.581	0.641
A-427	0.506	0.406	0.458	0.343	0.88	0.692	0.752	0.548	0.974	0.757	0.869	0.611	0.826	0.824	0.872	0.838	0.849	0.639	0.709	0.516
ABC-1	0.692	0.386	0.481	0.331	–	–	–	–	0.773	0.823	0.564	0.669	1.22	1.11	1.27	1.07	0.662	0.894	0.771	0.598
BEN	0.347	0.31	0.262	0.286	1.07	0.976	1.01	0.895	0.418	0.391	0.384	0.179	0.608	0.544	0.6	0.585	0.833	0.668	0.639	0.509
CAL-12T	0.797	0.449	0.69	0.391	0.303	0.347	0.323	0.399	0.399	0.472	0.362	0.544	0.937	0.473	0.744	0.941	0.691	0.661	0.748	0.65
COR-L23	0.759	0.637	0.712	0.391	0.749	0.581	0.571	0.59	0.799	0.55	0.714	0.632	0.61	0.442	0.522	0.501	–	–	–	–
COR-L 105	0.881	0.565	0.62	0.443	0.43	0.364	0.463	0.441	1.06	0.784	0.681	0.941	0.96	0.925	0.842	0.816	–	–	–	–
ChaGo-K-1	0.658	0.572	0.618	0.449	0.972	0.814	0.941	0.956	0.63	0.558	0.76	0.529	0.795	0.712	0.875	0.853	0.86	0.856	0.908	0.911
EKVX	0.734	0.751	0.709	0.641	0.359	0.287	0.336	0.281	0.945	0.843	0.919	0.926	0.841	0.65	0.714	0.75	0.607	0.623	0.649	0.656
EMC-BAC-2	0.399	0.343	0.362	0.258	0.94	0.841	0.775	0.721	1.23	1.12	0.991	0.925	0.53	0.461	0.523	0.384	1.12	1.05	1.11	0.891
EPLC-272H	0.308	0.266	0.298	0.249	0.347	0.228	0.27	0.257	0.368	0.224	0.293	0.668	0.498	0.48	0.357	0.429	0.263	0.108	0.276	0.0372
H3255	0.686	0.501	0.633	0.577	0.635	0.479	0.644	0.536	1.02	0.726	0.957	0.865	0.717	0.717	0.815	0.898	1.05	0.984	0.924	0.97
HARA	0.677	0.356	0.488	0.305	0.674	0.636	0.653	0.684	0.612	0.495	0.837	0.601	0.724	0.494	0.535	0.546	0.346	0.525	0.339	0.336
HCC-15	0.701	0.617	0.623	0.582	0.401	0.388	0.409	0.417	0.278	0.329	0.32	0.716	0.975	0.74	0.925	0.833	1.25	1.2	1.13	1.25
HCC-44	0.576	0.403	0.481	0.59	1.02	1	1.06	1.21	1.16	0.973	1.06	1.09	1.04	1.04	1.1	1.23	1.02	1.01	1.02	1.07
HCC-78	0.346	0.335	0.316	0.3	0.886	0.711	0.738	0.912	–	–	–	–	0.419	0.368	0.425	0.475	0.735	0.549	0.715	0.536
HCC-366	0.965	0.675	0.869	0.411	0.393	0.331	0.349	0.321	–	–	–	–	0.407	0.434	0.374	0.307	0.187	0.284	0.27	0.178
HCC-827	0.889	0.82	0.772	0.605	0.555	0.499	0.517	0.533	0.748	0.708	0.627	0.612	0.824	0.828	0.839	0.837	0.26	0.199	0.239	0.201

Cell Line	relative viability (Ruboxistaurin + OSI-027; first compound 0.08 µM)	relative viability (Ruboxistaurin + OSI-027; first compound 0.8 µM)	relative viability (Ruboxistaurin + OSI-027; first compound 2.53 µM)	relative viability (Ruboxistaurin + OSI-027; first compound 8 µM)	relative viability ([1]; first compound 0.08 µM)	relative viability ([1]; first compound 0.8 µM)	relative viability ([1]; first compound 2.53 µM)	relative viability ([1]; first compound 8 µM)	relative viability ([2]; first compound 0.08 µM)	relative viability ([2]; first compound 0.8 µM)	relative viability ([2]; first compound 2.53 µM)	relative viability ([2]; first compound 8 µM)	relative viability ([3]; first compound 0.08 µM)	relative viability ([3]; first compound 0.8 µM)	relative viability ([3]; first compound 2.53 µM)	relative viability ([3]; first compound 8 µM)	relative viability (Ruboxistaurin + AZD7762; first compound 0.08 µM)	relative viability (Ruboxistaurin + AZD7762; first compound 0.8 µM)	relative viability (Ruboxistaurin + AZD7762; first compound 2.53 µM)	relative viability (Ruboxistaurin + AZD7762; first compound 8 µM)
HOP-62	0.884	0.783	0.826	0.753	0.401	0.33	0.361	0.361	0.964	0.892	0.989	1.01	0.669	0.648	0.686	0.679	0.779	0.694	0.875	0.894
IA-LM	–	–	–	–	–	–	–	–	–	–	–	–	1.13	0.937	0.656	0.939	–	–	–	–
LC-2-ad	0.935	0.842	0.86	0.781	0.953	0.877	0.928	0.984	1.22	0.989	1.01	1.1	0.747	0.668	0.694	0.694	0.882	0.807	0.862	0.813
LCLC-97TM1	0.508	0.547	0.482	0.243	0.207	0.141	0.203	0.154	0.769	0.815	0.741	0.675	0.683	0.691	0.74	0.613	0.268	0.297	0.442	0.416
LCLC-103H	0.46	0.384	0.407	0.357	0.703	0.621	0.633	0.678	1.02	0.791	0.934	0.808	0.823	0.743	0.807	0.75	0.869	0.744	0.788	0.775
NCI-H520	0.192	0.258	0.233	0.218	0.831	0.627	0.808	0.617	0.227	0.182	0.227	0.225	0.883	0.723	0.735	0.672	–	–	–	–
NCI-H661	0.78	0.599	0.695	0.6	0.667	0.528	0.681	0.703	0.883	0.817	0.942	1.01	0.869	0.773	0.781	0.94	–	–	–	–
NCI-H1563	0.796	0.748	0.694	0.66	–	–	–	–	0.507	0.544	0.483	0.52	–	–	–	–	–	–	–	–
NCI-H1650	0.711	0.408	0.614	0.376	0.698	0.447	0.613	0.571	0.185	0.207	0.189	0.183	0.676	0.554	0.685	0.569	–	–	–	–
NCI-H1703	–	–	–	–	–	–	–	–	–	–	–	–	–	–	–	–	0.111	0.115	0.122	0.119
NCI-H1792	0.798	0.605	0.736	0.625	0.646	0.336	0.446	0.41	0.431	0.317	0.375	0.32	–	–	–	–	0.775	0.576	0.533	0.389
NCI-H2009	0.735	0.536	0.608	0.548	0.328	0.234	0.258	0.239	1.14	1.01	0.984	1.15	0.794	0.7	0.756	0.821	–	–	–	–
NCI-H2023	0.438	0.309	0.271	0.158	0.668	0.491	0.47	0.405	0.679	0.426	0.668	0.344	0.676	0.546	0.667	0.441	–	–	–	–
NCI-H2228	0.6	0.439	0.549	0.281	0.517	0.379	0.525	0.368	0.173	0.172	0.125	0.111	0.924	0.424	0.588	0.559	–	–	–	–
SK-LU-1	0.386	0.322	0.307	0.264	0.575	0.418	0.717	0.422	0.208	0.212	0.204	0.2	0.946	0.722	0.776	0.657	–	–	–	–
SK-MES-1	0.676	0.554	0.525	0.327	0.629	0.508	0.492	0.442	0.928	0.65	0.859	0.363	1.11	1.03	1.03	0.95	–	–	–	–
SW 1573	0.729	0.459	0.541	0.494	0.527	0.491	0.549	0.516	0.232	0.208	0.314	0.182	0.756	0.413	0.809	0.698	–	–	–	–
UMC-11	0.437	0.403	0.37	0.301	0.766	0.623	0.649	0.577	1.04	0.804	0.961	0.695	0.41	0.377	0.388	0.289	–	–	–	–
